This passage reports IC50 results from US20230339916A1, “PLANT GROWTH REGULATOR COMPOUNDS” (SYNGENTA CROP PROTECTION AG, priority 2020, published 2023).

The test concerns Corn leaf discs (variety Multitop). In words: Dark induced senescence of corn leaf. Type of test: in vivo. The settings on record: Zea mays, foliar, 192 h; corn leaf discs in the dark, 23° C., 75% humidity, 8 days; 100 μM-0.0001 μM, 0.5% DMSO; image analysis; read-out: IC50 (concentration at which 50% senescence was achieved). As to the method:
Corn plants of variety Multitop were grown in a greenhouse with relative 75% humidity and at 23-25° C. for 6 weeks. 1.4 cm diameter leaf discs were placed into 24-well plates containing test compounds in a concentration gradient (100 μM-0.0001 μM) at a final concentration of 0.5% DMSO. Each concentration was tested in 12 replicates. Plates were sealed with seal foil. The foil was pierced to provide gas exchange in each well. The plates were placed into the completely dark climatic chamber. Plates were incubated in the chamber with 75% humidity and at 23° C. for 8 days. On days 0, 5, 6, 7 and 8 photographs were taken of each plate, and image analysis conducted with a macro developed using the ImageJ software. The image analysis was used to determine the concentration at which 50% senescence was achieved (IC50), see Table 3. The lower the value, the higher senescence induction potency.

For the molecule `CCOC(=O)/C(=C/OC1OC(=O)C(C)=C1C)n1c(C)nc2ccccc21` (stereo not shown) [Compound I-59-Z, ethyl (Z)-3-[(3,4-dimethyl-5-oxo-2H-furan-2-yl)oxy]-2-(2-methylbenzimidazol-1-yl)prop-2-enoate], the IC50 is less than 3000 nM.

For `CCOC(=O)/C(=C/OC1C=C(C)C(=O)O1)n1cnc2c(N(C)C)nc(F)nc21` (stereo not shown) [Compound I-60-Z, ethyl (Z)-2-[6-(dimethylamino)-2-fluoro-purin-9-yl]-3-[(4-methyl-5-oxo-2H-furan-2-yl)oxy]prop-2-enoate], the IC50 is less than 3000 nM.

`CCOC(=O)/C(=C/OC1OC(=O)C(C)=C1C)n1cnc2c(N(C)C)nc(F)nc21` (stereo not shown) [Compound I-61-Z, ethyl (Z)-2-[6-(dimethylamino)-2-fluoro-purin-9-yl]-3-[(3,4-dimethyl-5-oxo-2H-furan-2-yl)oxy]prop-2-enoate]: the IC50 was less than 3000 nM.

On to `CCOC(=O)/C(=C/OC1C=C(C)C(=O)O1)n1ccc2cncnc21` (stereo not shown) [Compound I-62-Z, ethyl (Z)-3-[(4-methyl-5-oxo-2H-furan-2-yl)oxy]-2-pyrrolo[2,3-d]pyrimidin-7-yl-prop-2-enoate], for which the IC50 is less than 3000 nM.

For the molecule `CCOC(=O)/C(=C/OC1C=C(C)C(=O)O1)n1c(=O)sc2ccccc21` (stereo not shown) [Compound I-64-Z, ethyl (Z)-3-[(4-methyl-5-oxo-2H-furan-2-yl)oxy]-2-(2-oxo-1,3-benzothiazol-3-yl)prop-2-enoate], the IC50 was less than 3000 nM.

For the molecule `CCOC(=O)/C(=C/OC1OC(=O)C(C)=C1C)n1c(=O)sc2ccccc21` (stereo not shown) [Compound I-65-Z], the IC50 was less than 3000 nM.

For `CCOC(=O)/C(=C/OC1C=C(C)C(=O)O1)N1C(=O)C2(CC2)c2ccccc21` (stereo not shown) [Compound I-66-Z, ethyl (Z)-3-[(4-methyl-5-oxo-2H-furan-2-yl)oxy]-2-(2′-oxospiro[cyclopropane-1,3′-indoline]-1′-yl)prop-2-enoate], the IC50 is less than 3000 nM.

Regarding `CCOC(=O)/C(=C/OC1OC(=O)C(C)=C1C)N1C(=O)C2(CC2)c2ccccc21` (stereo not shown) [Compound I-67-Z, ethyl (Z)-3-[(3,4-dimethyl-5-oxo-2H-furan-2-yl)oxy]-2-(2′-oxospiro[cyclopropane-1,3′-indoline]-1′-yl)prop-2-enoate], the IC50 was less than 3000 nM.

On to `CCOC(=O)/C(=C/OC1C=C(C)C(=O)O1)n1c(=O)oc2ccccc21` (stereo not shown) [Compound I-68-Z, ethyl (Z)-3-[(4-methyl-5-oxo-2H-furan-2-yl)oxy]-2-(2-oxo-1,3-benzoxazol-3-yl)prop-2-enoate], for which the IC50 is less than 3000 nM.

For `CCOC(=O)/C(=C/OC1OC(=O)C(C)=C1C)n1c(=O)oc2ccccc21` (stereo not shown) [Compound I-69-Z, ethyl (Z)-3-[(3,4-dimethyl-5-oxo-2H-furan-2-yl)oxy]-2-(2-oxo-1,3-benzoxazol-3-yl)prop-2-enoate], the IC50 was less than 3000 nM.

As to `CCOC(=O)/C(=C/OC1C=C(C)C(=O)O1)N1CCc2ccccc21` (stereo not shown) [Compound I-70-Z, ethyl (Z)-2-indolin-1-yl-3-[(4-methyl-5-oxo-2H-furan-2-yl)oxy]prop-2-enoate], the IC50 was less than 3000 nM.

`CCOC(=O)/C(=C/OC1C=C(C)C(=O)O1)N1CCc2cc(Br)ccc21` (stereo not shown) [Compound I-72-Z, ethyl (Z)-2-(5-bromoindolin-1-yl)-3-[(4-methyl-5-oxo-2H-furan-2-yl)oxy]prop-2-enoate]: the IC50 is less than 3000 nM.

On to `CCOC(=O)/C(=C/OC1OC(=O)C(C)=C1C)N1CCc2cc(Br)ccc21` (stereo not shown) [Compound I-73-Z, ethyl (Z)-2-(5-bromoindolin-1-yl)-3-[(3,4-dimethyl-5-oxo-2H-furan-2-yl)oxy]prop-2-enoate], for which the IC50 was less than 3000 nM.

With `CCOC(=O)/C(=C/OC1C=C(C)C(=O)O1)N1C(=O)CSc2ccccc21` (stereo not shown) [Compound I-78-Z, ethyl (Z)-3-[(4-methyl-5-oxo-2H-furan-2-yl)oxy]-2-(3-oxo-1,4-benzothiazin-4-yl)prop-2-enoate], the IC50 was less than 3000 nM.

Take `CCOC(=O)/C(=C/OC1OC(=O)C(C)=C1C)N1C(=O)CSc2ccccc21` (stereo not shown) [Compound I-79-Z, ethyl (Z)-3-[(3,4-dimethyl-5-oxo-2H-furan-2-yl)oxy]-2-(3-oxo-1,4-benzothiazin-4-yl)prop-2-enoate]: the IC50 was less than 3000 nM.

`CCOC(=O)/C(=C/OC1C=C(C)C(=O)O1)n1nc(C)c(C)c1C` (stereo not shown) [Compound I-80-Z, ethyl (Z)-3-[(4-methyl-5-oxo-2H-furan-2-yl)oxy]-2-(3,4,5-trimethylpyrazol-1-yl)prop-2-enoate]: the IC50 is less than 3000 nM.

Take `CCOC(=O)/C(=C/OC1OC(=O)C(C)=C1C)n1nc(C)c(C)c1C` (stereo not shown) [Compound I-81-Z, ethyl (Z)-3-[(3,4-dimethyl-5-oxo-2H-furan-2-yl)oxy]-2-(3,4,5-trimethylpyrazol-1-yl)prop-2-enoate]: the IC50 is less than 3000 nM.

Take `CNC(=O)/C(=C/OC1C=C(C)C(=O)O1)n1cc(C#N)c2ccccc21` (stereo not shown) [Compound I-82-Z, (Z)-2-(3-cyanoindol-1-yl)-N-methyl-3-[(4-methyl-5-oxo-2H-furan-2-yl)oxy]prop-2-enamide]: the IC50 was less than 3000 nM.

`CNC(=O)/C(=C/OC1OC(=O)C(C)=C1C)n1cc(C#N)c2ccccc21` (stereo not shown) [Compound I-83-Z, (Z)-2-(3-cyanoindol-1-yl)-3-[(3,4-dimethyl-5-oxo-2H-furan-2-yl)oxy]-N-methyl-prop-2-enamide]: the IC50 was less than 3000 nM.

`CC1=CC(O/C=C(/C(=O)N(C)C)n2cc(C#N)c3ccccc32)OC1=O` (stereo not shown) [Compound I-86-Z, (Z)-2-(3-cyanoindol-1-yl)-N,N-dimethyl-3-[(4-methyl-5-oxo-2H-furan-2-yl)oxy]prop-2-enamide]: the IC50 is less than 3000 nM.

Take `CCOC(=O)/C(=C/OC1OC(=O)C(C)=C1OC)n1cc(C#N)c2ccccc21` (stereo not shown) [Compound I-88-Z, ethyl (Z)-2-(3-cyanoindol-1-yl)-3-[(3-methoxy-4-methyl-5-oxo-2H-furan-2-yl)oxy]prop-2-enoate]: the IC50 is less than 3000 nM.

Regarding `CCOC(=O)/C(=C/OC1OC(=O)C(C)=C1C)n1ccc2nccnc21` (stereo not shown) [Compound I-90-Z, ethyl (Z)-3-[(3,4-dimethyl-5-oxo-2H-furan-2-yl)oxy]-2-pyrrolo[2,3-b]pyrazin-5-yl-prop-2-enoate], the IC50 was less than 3000 nM.
